{
  "source": "patent US20200352905A1",
  "about": "“6-(2,4-DICHLOROPHENYL)-5-[4-[(3S)-1-(3-FLUOROPROPYL)PYRROLIDIN-3-YL]OXYPHENYL]-8,9-DIHYDRO-7H-BENZO[7]ANNULENE-2-CARBOXYLIC ACID FOR USE IN METASTATIC OR ADVANCED BREAST CANCER PATIENTS” (SANOFI, priority 2019, published 2020)",
  "key": {"[1]": {"system": "ER-positive and HER2-negative advanced breast cancer", "test": "TED14856 Part A: antitumor activity per RECIST v1.1 (BOR, ORR, CBR)", "description": "The signal extinction between baseline and on study treatment ^18FES-PET scans constitute the PD readout of the ER engagement.\nPatients with an early progression as per RECIST v1.1 or who died from disease progression are evaluable for response.\nPreliminary efficacy is descriptively presented on activity/efficacy population."}, "[2]": {"test": "TED14856 Part B (dose expansion, 400 mg QD): safety, TEAEs", "type": "in vivo, human", "settings": "Part B", "procedure": "Part B: Dose expansion study to evaluate the efficacy, safety, PK and PD of compound (1) administered at the RD (from Part A). […] A BID regimen (without omission on Day 2) may also be explored if found to be needed. Safety population includes all patients exposed to at least one dose of the study treatment. Treatment emergent adverse events (TEAEs) are analyzed according to current version of the Medical Dictionary for Regulatory Activities (MedDRA) dictionary. Laboratory abnormalities are analyzed according to the NCI-CTCAE v.4.03. Type, frequency, seriousness, severity and relatedness of study treatment TEAEs is analyzed on the safety population for each dose level. Similar analyses as for the escalation phase shall be performed."}},
  "data": [
    {"smiles": "O=C(O)c1ccc2c(c1)CCCC(c1ccc(Cl)cc1Cl)=C2c1ccc(O[C@H]2CCN(CCCF)C2)cc1", "note": "[compound (1), 6-(2,4-dichlorophenyl)-5-[4-[(3S)-1-(3-fluoropropyl)pyrrolidin-3-yl]oxyphenyl]-8,9-dihydro-7H-benzo[7]annulene-2-carboxylic acid]", "values": [
      {"measurement": "Clinical Benefit Rate", "setting": "[1]; 20 mg, N=3", "value": 0, "unit": "n"},
      {"measurement": "Complete Response (CR)", "setting": "[1]; 20 mg, N=3", "value": 0, "unit": "n"},
      {"measurement": "Objective Response Rate", "setting": "[1]; 20 mg, N=3", "value": 0, "unit": "n"},
      {"measurement": "Partial Response (PR)", "setting": "[1]; 20 mg, N=3", "value": 0, "unit": "n"},
      {"measurement": "Complete Response (CR)", "setting": "[1]; 150 mg, N=3", "value": 0, "unit": "n"},
      {"measurement": "Complete Response (CR)", "setting": "[1]; 200 mg, N=4", "value": 0, "unit": "n"},
      {"measurement": "Objective Response Rate", "setting": "[1]; 200 mg, N=4", "value": 0, "unit": "n"},
      {"measurement": "Partial Response (PR)", "setting": "[1]; 200 mg, N=4", "value": 0, "unit": "n"},
      {"measurement": "Complete Response (CR)", "setting": "[1]; 400 mg, N=3", "value": 0, "unit": "n"},
      {"measurement": "Objective Response Rate", "setting": "[1]; 400 mg, N=3", "value": 0, "unit": "n"},
      {"measurement": "Partial Response (PR)", "setting": "[1]; 400 mg, N=3", "value": 0, "unit": "n"},
      {"measurement": "Complete Response (CR)", "setting": "[1]; 600 mg, N=3", "value": 0, "unit": "n"},
      {"measurement": "Objective Response Rate", "setting": "[1]; 600 mg, N=3", "value": 0, "unit": "n"},
      {"measurement": "Partial Response (PR)", "setting": "[1]; 600 mg, N=3", "value": 0, "unit": "n"},
      {"measurement": "Complete Response (CR)", "setting": "[1]; All, N=16", "value": 0, "unit": "n"},
      {"measurement": "patients with tumor shrinkage greater than 10%", "setting": "[1]; N=16", "value": 9, "unit": "patients"},
      {"measurement": "Clinical Benefit Rate (CBR)", "setting": "[1]; patients with ESR1 mutations (5/11)", "value": 45.5, "unit": "%"},
      {"measurement": "Clinical Benefit Rate (CBR)", "setting": "[1]; patients with wild-type ESR1 (3/5)", "value": 60.0, "unit": "%"},
      {"measurement": "Grade 3 laboratory abnormality: ALK increase", "setting": "[2]", "value": 2, "unit": "patients"},
      {"measurement": "Grade 3 laboratory abnormality: ALT increase", "setting": "[2]", "value": 4, "unit": "patients"},
      {"measurement": "Grade 3 laboratory abnormality: AST increase", "setting": "[2]", "value": 6, "unit": "patients"},
      {"measurement": "Grade 3 laboratory abnormality: anemia", "setting": "[2]", "value": 1, "unit": "patients"},
      {"measurement": "Grade 3 laboratory abnormality: bilirubin increase", "setting": "[2]", "value": 3, "unit": "patients"},
      {"measurement": "Grade 3 laboratory abnormality: hypercalcemia", "setting": "[2]", "value": 1, "unit": "patients"},
      {"measurement": "Grade 3 laboratory abnormality: hyponatremia", "setting": "[2]", "value": 2, "unit": "patients"},
      {"measurement": "Grade 3 laboratory abnormality: hypophosphatemia", "setting": "[2]", "value": 2, "unit": "patients"},
      {"measurement": "Grade 3 laboratory abnormality: lymphopenia", "setting": "[2]", "value": 5, "unit": "patients"},
      {"measurement": "Grade 3 laboratory abnormality: neutropenia", "setting": "[2]", "value": 1, "unit": "patients"},
      {"measurement": "Grade 4 laboratory abnormality: hypocalcemia", "setting": "[2]", "value": 1, "unit": "patients"},
      {"measurement": "Grade 4 laboratory abnormality: hypokalemia", "setting": "[2]", "value": 1, "unit": "patients"},
      {"measurement": "Grade 4 laboratory abnormality: hyponatremia", "setting": "[2]", "value": 1, "unit": "patients"},
      {"measurement": "Patients with Gr3 TEAE: Abdominal pain", "setting": "[2]; 400 mg, N=49", "value": 0, "unit": "n"},
      {"measurement": "Patients with Gr3 TEAE: Abdominal pain upper", "setting": "[2]; 400 mg, N=49", "value": 0, "unit": "n"},
      {"measurement": "Patients with Gr3 TEAE: Arthralgia", "setting": "[2]; 400 mg, N=49", "value": 0, "unit": "n"},
      {"measurement": "Patients with Gr3 TEAE: Asthenia", "setting": "[2]; 400 mg, N=49", "value": 0, "unit": "n"},
      {"measurement": "Patients with Gr3 TEAE: Back pain", "setting": "[2]; 400 mg, N=49", "value": 0, "unit": "n"},
      {"measurement": "Patients with Gr3 TEAE: Constipation", "setting": "[2]; 400 mg, N=49", "value": 0, "unit": "n"},
      {"measurement": "Patients with Gr3 TEAE: Cough", "setting": "[2]; 400 mg, N=49", "value": 0, "unit": "n"},
      {"measurement": "Patients with Gr3 TEAE: Decreased appetite", "setting": "[2]; 400 mg, N=49", "value": 0, "unit": "n"},
      {"measurement": "Patients with Gr3 TEAE: Depression", "setting": "[2]; 400 mg, N=49", "value": 0, "unit": "n"},
      {"measurement": "Patients with Gr3 TEAE: Diarrhoea", "setting": "[2]; 400 mg, N=49", "value": 0, "unit": "n"},
      {"measurement": "Patients with Gr3 TEAE: Dry skin", "setting": "[2]; 400 mg, N=49", "value": 0, "unit": "n"},
      {"measurement": "Patients with Gr3 TEAE: Dyspnoea", "setting": "[2]; 400 mg, N=49", "value": 0, "unit": "n"},
      {"measurement": "Patients with Gr3 TEAE: Gastroesophageal reflux disease", "setting": "[2]; 400 mg, N=49", "value": 0, "unit": "n"},
      {"measurement": "Patients with Gr3 TEAE: Headache", "setting": "[2]; 400 mg, N=49", "value": 0, "unit": "n"},
      {"measurement": "Patients with Gr3 TEAE: Hot flush", "setting": "[2]; 400 mg, N=49", "value": 0, "unit": "n"},
      {"measurement": "Patients with Gr3 TEAE: Hypertension", "setting": "[2]; 400 mg, N=49", "value": 0, "unit": "n"},
      {"measurement": "Patients with Gr3 TEAE: Musculoskeletal pain", "setting": "[2]; 400 mg, N=49", "value": 0, "unit": "n"},
      {"measurement": "Patients with Gr3 TEAE: Nasopharyngitis", "setting": "[2]; 400 mg, N=49", "value": 0, "unit": "n"},
      {"measurement": "Patients with Gr3 TEAE: Pyrexia", "setting": "[2]; 400 mg, N=49", "value": 0, "unit": "n"},
      {"measurement": "Patients with Gr3 TEAE: Rhinitis allergic", "setting": "[2]; 400 mg, N=49", "value": 0, "unit": "n"},
      {"measurement": "Patients with Gr3 TEAE: Urinary tract infection", "setting": "[2]; 400 mg, N=49", "value": 0, "unit": "n"},
      {"measurement": "Patients with related Gr3 TEAE: ALL", "setting": "[2]; 400 mg, N=49", "value": 0, "unit": "n"},
      {"measurement": "Patients with related Gr3 TEAE: ALT increased", "setting": "[2]; 400 mg, N=49", "value": 0, "unit": "n"},
      {"measurement": "Patients with related Gr3 TEAE: AST increased", "setting": "[2]; 400 mg, N=49", "value": 0, "unit": "n"},
      {"measurement": "Patients with related Gr3 TEAE: Abdominal pain", "setting": "[2]; 400 mg, N=49", "value": 0, "unit": "n"},
      {"measurement": "Patients with related Gr3 TEAE: Abdominal pain upper", "setting": "[2]; 400 mg, N=49", "value": 0, "unit": "n"},
      {"measurement": "Patients with related Gr3 TEAE: Arthralgia", "setting": "[2]; 400 mg, N=49", "value": 0, "unit": "n"},
      {"measurement": "Patients with related Gr3 TEAE: Asthenia", "setting": "[2]; 400 mg, N=49", "value": 0, "unit": "n"},
      {"measurement": "Patients with related Gr3 TEAE: Back pain", "setting": "[2]; 400 mg, N=49", "value": 0, "unit": "n"},
      {"measurement": "Patients with related Gr3 TEAE: Constipation", "setting": "[2]; 400 mg, N=49", "value": 0, "unit": "n"},
      {"measurement": "Patients with related Gr3 TEAE: Cough", "setting": "[2]; 400 mg, N=49", "value": 0, "unit": "n"},
      {"measurement": "Patients with related Gr3 TEAE: Decreased appetite", "setting": "[2]; 400 mg, N=49", "value": 0, "unit": "n"},
      {"measurement": "Patients with related Gr3 TEAE: Depression", "setting": "[2]; 400 mg, N=49", "value": 0, "unit": "n"},
      {"measurement": "Patients with related Gr3 TEAE: Diarrhoea", "setting": "[2]; 400 mg, N=49", "value": 0, "unit": "n"},
      {"measurement": "Patients with related Gr3 TEAE: Dry skin", "setting": "[2]; 400 mg, N=49", "value": 0, "unit": "n"},
      {"measurement": "Patients with related Gr3 TEAE: Dyspnoea", "setting": "[2]; 400 mg, N=49", "value": 0, "unit": "n"},
      {"measurement": "Patients with related Gr3 TEAE: Fatigue", "setting": "[2]; 400 mg, N=49", "value": 0, "unit": "n"},
      {"measurement": "Patients with related Gr3 TEAE: Gastroesophageal reflux disease", "setting": "[2]; 400 mg, N=49", "value": 0, "unit": "n"},
      {"measurement": "Patients with related Gr3 TEAE: Headache", "setting": "[2]; 400 mg, N=49", "value": 0, "unit": "n"},
      {"measurement": "Patients with related Gr3 TEAE: Hot flush", "setting": "[2]; 400 mg, N=49", "value": 0, "unit": "n"},
      {"measurement": "Patients with related Gr3 TEAE: Hypertension", "setting": "[2]; 400 mg, N=49", "value": 0, "unit": "n"}
    ]}
  ]
}
